Test results reported in patent publication US9388176B2, “Method of treating conditiions with kinase inhibitors” (Allergan, Inc., priority 2012, dated 2016).

Each compound was assayed against PDGFRβ kinase, purified cytoplasmic domain PDGFR-β protein (Homo sapiens (Human), UniProt P09619) (assay: PDGFRβ Kinase Assay). Details: 36 μM ATP, poly-Glu-Tyr (4:1) substrate, 60 minute incubation at 30° C., ELISA read at 492 nm.
Type: biochemical
Experimental: Biochemical PDGFRβ kinase assays were performed in 96 well microliter plates that were coated overnight with 75 μg of poly-Glu-Tyr (4:1) in 10 mM Phosphate Buffered Saline (PBS), pH 7.4. The coated plates were washed with 2 mls per well PBS+0.05% Tween-20 (PBS-T), blocked by incubation with PBS containing 1% BSA, then washed with 2 mls per well PBS-T prior to starting the reaction. Reactions were carried out in 100 μL reaction volumes containing 36 μM ATP in kinase buffer (50 mM Hepes buffer pH 7.4, 20 mM MgCl2, 0.1 mM MnCl2 and 0.2 mM Na3VO4). Test compounds were reconstituted in 100% DMSO and added to the reaction to give a final DMSO concentration of 5%. Reactions were initiated by the addition 20 ul per well of kinase buffer containing 200-300 ng purified cytoplasmic domain PDGFR-β protein (Millipore). Following a 60 minute incubation at 30° C., the reactions were washed 2 mls per well PBS-T. 100 μl of a monoclonal anti-phosphotyrosine antibody-peroxidase conjugate diluted 1:10,000 in PBS-T was added to the wells for 30 minutes. Following a 2 mls per well wash with PBS-Tween-20, 100 μl of 0-Phenylenediamine Dihydrochloride in phosphate-citrate buffer, containing urea hydrogen peroxide, was added to the wells for 7-10 minutes as a colorimetric substrate for the peroxidase. The reaction was terminated by the addition of 100 μl of 2.5N H2SO4 to each well and read using a microplate ELISA reader set at 492 nm. IC50 values for compound inhibition were calculated directly from graphs of optical density (arbitrary units) versus compound concentration following subtraction of blank values. […]

Sequence of PDGFRβ kinase, purified cytoplasmic domain PDGFR-β protein (P09619 554-1106): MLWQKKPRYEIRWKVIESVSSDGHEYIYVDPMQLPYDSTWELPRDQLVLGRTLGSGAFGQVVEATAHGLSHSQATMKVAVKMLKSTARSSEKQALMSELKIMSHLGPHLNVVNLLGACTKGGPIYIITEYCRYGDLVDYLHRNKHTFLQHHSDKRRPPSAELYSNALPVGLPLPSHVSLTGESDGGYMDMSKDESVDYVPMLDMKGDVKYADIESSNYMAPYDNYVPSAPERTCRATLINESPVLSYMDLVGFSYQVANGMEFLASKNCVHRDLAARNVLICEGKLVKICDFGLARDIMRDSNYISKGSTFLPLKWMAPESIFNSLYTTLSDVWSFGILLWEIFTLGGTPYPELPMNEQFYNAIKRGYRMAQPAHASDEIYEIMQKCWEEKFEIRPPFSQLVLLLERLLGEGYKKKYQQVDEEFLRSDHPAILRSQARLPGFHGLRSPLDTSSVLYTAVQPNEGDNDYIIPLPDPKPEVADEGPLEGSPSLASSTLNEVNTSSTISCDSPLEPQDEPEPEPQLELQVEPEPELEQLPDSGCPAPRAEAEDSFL

IC50 [µM]	Compound
0.032	CCCc1ccc(NC(=O)c2cccc(N3CCc4nc(N)ncc4C3)c2)cc1 [Example 10, 3-(2-amino-7,8-dihydropyrido[4,3-d]pyrimidin-6(5H)-yl)-N-(4-propylphenyl)benzamide]
0.134	CCc1ccc(NC(=O)c2cccc(N3CCc4nc(N)ncc4C3)c2)cc1 [Example 8, 3-(2-amino-7,8-dihydropyrido[4,3-d]pyrimidin-6(5H)-yl)-N-(4-ethylphenyl)benzamide]
> 10	O=C(Nc1ccc(N2CCc3ccncc3C2)cc1)c1cccc(C(F)(F)F)c1 [Example 162, N-[4-(3,4-dihydro-2,7-naphthyridin-2(1H)-yl)phenyl]-3-(trifluoromethyl)benzamide]
0.164	CC(C)(C)CCNC(=O)c1cccc(N2CCc3nc(N)ncc3C2)c1 [Example 20, 3-(2-amino-7,8-dihydropyrido[4,3-d]pyrimidin-6(5H)-yl)-N-(3,3-dimethylbutyl)benzamide]
> 10	O=C(Nc1ccccc1)Nc1ccc(N2CCc3ccncc3C2)cc1 [Example 164, 1-[4-(3,4-dihydro-2,7-naphthyridin-2(1H)-yl)phenyl]-3-phenylurea]
0.052	CCc1cccc(NC(=O)c2cccc(N3CCc4nc(N)ncc4C3)c2)c1 [Example 9, 3-(2-amino-7,8-dihydropyrido[4,3-d]pyrimidin-6(5H)-yl)-N-(3-ethylphenyl)benzamide]
> 1	CN1CCC(Oc2ccc(NC(=O)c3cccc(N4CCc5nc(N)ncc5C4)c3)cc2)CC1 [Example 11, 3-(2-amino-7,8-dihydropyrido[4,3-d]pyrimidin-6(5H)-yl)-N-(4-((1-methylpiperidin-4-yl)oxy)phenyl)benzamide]
0.024	CC(C)c1ccc(NC(=O)c2cccc(N3CCc4nc(N)ncc4C3)c2)cc1 [Example 12, 3-(2-amino-7,8-dihydropyrido[4,3-d]pyrimidin-6(5H)-yl)-N-(4-isopropylphenyl)benzamide]
0.026	Nc1ncc2c(n1)CCN(c1cccc(C(=O)Nc3cccc(C(F)(F)F)c3)c1)C2 [Example 5, 3-(2-amino-7,8-dihydropyrido[4,3-d]pyrimidin-6(5H)-yl)-N-(3-(trifluoromethyl)phenyl)benzamide]
> 1	Cc1ccc(NC(=O)Nc2ccc(N3CCc4ccncc4C3)cc2)cc1 [Example 165, 1-[4-(3,4-dihydro-2,7-naphthyridin-2(1H)-yl)phenyl]-3-(4-methylphenyl)urea]
0.021	CC(C)c1cccc(NC(=O)c2cccc(N3CCc4nc(N)ncc4C3)c2)c1 [Example 2, 3-(2-amino-7,8-dihydropyrido[4,3-d]pyrimidin-6(5H)-yl)-N-(3-isopropylphenyl)benzamide]
> 10	Nc1ncc2c(n1)CCN(c1cccc(C(=O)NC3CCCC3)c1)C2 [Example 19, 3-(2-amino-7,8-dihydropyrido[4,3-d]pyrimidin-6(5H)-yl)-N-cyclopentylbenzamide]
> 10	Cc1cccc(NC(=O)c2cccc(N3CCc4nc(N)ncc4C3)n2)c1 [Example 37, 6-(2-amino-7,8-dihydropyrido[4,3-d]pyrimidin-6(5H)-yl)-N-(3-methylphenyl)pyridine-2-carboxamide]
> 1	CCN(CC)C(=O)c1cccc(N2CCc3nc(N)ncc3C2)c1 [Example 21, 3-(2-amino-7,8-dihydropyrido[4,3-d]pyrimidin-6(5H)-yl)-N,N-diethylbenzamide]
1.24	COc1cccc(NC(=O)c2cccc(N3CCc4nc(N)ncc4C3)c2)c1 [Example 7, 3-(2-amino-7,8-dihydropyrido[4,3-d]pyrimidin-6(5H)-yl)-N-(3-methoxyphenyl)benzamide]
> 10	CCCCNC(=O)c1cccc(N2CCc3nc(N)ncc3C2)c1 [Example 16, 3-(2-amino-7,8-dihydropyrido[4,3-d]pyrimidin-6(5H)-yl)-N-butylbenzamide]

Each compound was assayed against VEGFR2 (KDR) kinase, purified cytoplasmic domain KDR protein (Homo sapiens (Human), UniProt P35968) (assay: VEGFR2 Kinase Assay). Details: 2.7 μM ATP, poly-Glu-Tyr (4:1) substrate, 15 minute incubation at 30° C., ELISA read at 492 nm.
Sequence of VEGFR2 (KDR) kinase, purified cytoplasmic domain KDR protein (P35968 786-1356): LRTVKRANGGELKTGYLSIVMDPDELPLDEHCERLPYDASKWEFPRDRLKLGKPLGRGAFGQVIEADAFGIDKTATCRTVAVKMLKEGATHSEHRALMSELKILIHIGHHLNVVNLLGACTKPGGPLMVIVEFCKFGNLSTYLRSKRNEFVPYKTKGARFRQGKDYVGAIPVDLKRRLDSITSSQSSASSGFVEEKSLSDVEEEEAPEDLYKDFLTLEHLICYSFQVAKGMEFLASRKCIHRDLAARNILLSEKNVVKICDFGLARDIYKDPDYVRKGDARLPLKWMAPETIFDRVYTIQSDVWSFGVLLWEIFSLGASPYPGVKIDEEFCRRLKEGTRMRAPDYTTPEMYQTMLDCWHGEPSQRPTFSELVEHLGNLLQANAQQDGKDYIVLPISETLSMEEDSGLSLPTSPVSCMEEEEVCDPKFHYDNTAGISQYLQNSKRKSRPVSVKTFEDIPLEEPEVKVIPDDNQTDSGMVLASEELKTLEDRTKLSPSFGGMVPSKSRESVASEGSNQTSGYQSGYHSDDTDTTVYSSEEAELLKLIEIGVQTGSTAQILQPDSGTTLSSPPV
Type: biochemical
Experimental: Biochemical KDR kinase assays were performed in 96 well microliter plates that were coated overnight with 75 μg/well of poly-Glu-Tyr (4:1) in 10 mM Phosphate Buffered Saline (PBS), pH 7.4. The coated plates were washed with 2 mls per well PBS+0.05% Tween-20 (PBS-T), blocked by incubation with PBS containing 1% BSA, then washed with 2 mls per well PBS-T prior to starting the reaction. […] Reactions were initiated by the addition 20 ul per well of kinase buffer containing 200-300 ng purified cytoplasmic domain KDR protein (BPS Bioscience, San Diego, Calif.). Following a 15 minute incubation at 30° C., the reactions were washed 2 mls per well PBS-T. 100 μl of a monoclonal anti-phosphotyrosine antibody-peroxidase conjugate diluted 1:10,000 in PBS-T was added to the wells for 30 minutes. Following a 2 mls per well wash with PBS-Tween-20, 100 μl of O-Phenylenediamine Dihydrochloride in phosphate-citrate buffer, containing urea hydrogen peroxide, was added to the wells for 7-10 minutes as a colorimetric substrate for the peroxidase. […] IC50 values for compound inhibition were calculated directly from graphs of optical density (arbitrary units) versus compound concentration following subtraction of blank values.

IC50 [µM]	Compound
> 1	CSc1ncc2c(n1)CCN(c1cc(C)cc(C(=O)Nc3cccc(C(F)(F)F)c3)c1)C2 [Example 140, 3-methyl-5-[2-(methylthio)-7,8-dihydropyrido[4,3-d]pyrimidin-6(5H)-yl]-N-[3-(trifluoromethyl)phenyl]benzamide]
> 1	CSc1ncc2c(n1)CCN(c1cc(C)cc(C(=O)Nc3cccc(C(C)C)c3)c1)C2 [Example 142, N-(3-isopropylphenyl)-3-methyl-5-[2-(methylthio)-7,8-dihydropyrido[4,3-d]pyrimidin-6(5H)-yl]benzamide]
> 1	Cc1ccc(NC(=O)Nc2ccc(N3CCc4ccncc4C3)cc2)cc1 [Example 165, 1-[4-(3,4-dihydro-2,7-naphthyridin-2(1H)-yl)phenyl]-3-(4-methylphenyl)urea]

Compound	IC50 [µM]
4-(2-Methylsulfanyl-5,7-dihydro-pyrrolo[3,4-d]pyrimidin-6-yl)-pyridine-2-carboxylic acid (3-trifluoromethyl-phenyl)-amide [Example 126]	> 10
